Laboratory results published in patent publication US9498483B2, “2,3,5-trisubstituted thiophene compounds and uses thereof” (priority 2010, dated 2016).

What was measured:
[1] = system: HCV replicon I389luc-ubi-neo/NS3-3′/ET in ET (Huh-lucubineo-ET) cells; assay: Replicon assay (Biological Example 2), luciferase readout; format: cell-based; conditions: Hepatitis C virus
Outline: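 EC50 values come from Hill fits of % inhibition of replicon-driven firefly luciferase, relative to no-compound wells. Compounds were serially diluted (10 points, 3-fold, 0.1 nM–50 μM final, 0.5% DMSO) onto ET replicon cells and read after 48 h.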

HCV polymerase = target: T1, HCV polymerase (Hepatitis C virus genotype 1b, UniProt Q9WMX2); assay: Polymerase assay of Biological Example 1 (IC50 values of Table 3); format: biochemical; conditions: IC50 values of Table 3, polymerase assay of Biological Example 1; read-out: NS5B-enzyme3
T1 construct: (His)6 (C); made in house; host or cells: XL-1 cells (E. coli, by own knowledge)

[2] = ET cells, luciferase activity 48 hours after compound

Compound	IC50 ([1]; between 100 nM and 5.0 uM) [nM]	IC50 (HCV polymerase) [nM]	IC50 [1, 2] [nM]
COc1cccc(S(=O)(=O)N2CC(=O)N(c3cc(-c4ccccc4)sc3C(=O)O)[C@H](C3CCCCC3)C2)c1 [Compound 107, 3-[(R)-2-Cyclohexyl-4-(3-methoxy-benzenesulfonyl)-6-oxo-piperazin-1-yl]-5-phenyl-thiophene-2-carboxylic acid]	100 to 5000	< 1	
O=C(O)c1sc(-c2ccccc2)cc1N1C(=O)CN(Cc2ccccc2)C[C@H]1C1CCCCC1 [Compound 17, 3-((R)-4-Benzyl-2-cyclohexyl-6-oxo-piperazin-1-yl)-5-phenyl-thiophene-2-carboxylic acid]	100 to 5000	24	
O=C(O)c1sc(-c2ccccc2)cc1N1C(=O)CN(S(=O)(=O)c2ccccc2)CC1C1CCCCC1 (stereo not drawn) [Compound 52, 3-(4-Benzenesulfonyl-2-cyclohexyl-6-oxo-piperazin-1-yl)-5-phenyl-thiophene-2-carboxylic acid]	100 to 5000	15	
Cc1ccc(-c2cc(N3C(=O)C(C)(O)CCC3C3CCCCC3)c(C(=O)O)s2)cc1 (stereo not drawn) [Compound 324, 3-(6-Cyclohexyl-3-hydroxy-3-methyl-2-oxo-piperidin-1-yl)-5-p-tolyl-thiophene-2-carboxylic acid]	100 to 5000	85	
O=C(O)c1sc(-c2ccccc2)cc1N1C(=O)CN(S(=O)(=O)C2CCN(C(=O)OCc3ccccc3)CC2)CC1C1CCCCC1 (stereo not drawn) [Compound 112, 4-[4-(2-Carboxy-5-phenyl-thiophen-3-yl)-3-cyclohexyl-5-oxo-piperazine-1-sulfonyl]-piperidine-1-carboxylic acid benzyl ester]		173	≥ 5000
O=C(O)c1sc(-c2ccc(F)cc2)cc1N1C(=O)CN(S(=O)(=O)c2ccc(N3CCCOCC3)nc2)C[C@H]1C1CCCCC1 [Compound 186, 3-[(R)-2-Cyclohexyl-4-(6-[1,4]oxazepan-4-yl-pyridine-3-sulfonyl)-6-oxo-piperazin-1-yl]-5-(4-fluoro-phenyl)-thiophene-2-carboxylic acid]		1	≤ 100
Cc1cccc(S(=O)(=O)N2CC(=O)N(c3cc(-c4ccccc4)sc3C(=O)O)C(C3CCCCC3)C2)c1 (stereo not drawn) [Compound 49, 3-[2-Cyclohexyl-6-oxo-4-(toluene-3-sulfonyl)-piperazin-1-yl]-5-phenyl-thiophene-2-carboxylic acid]	100 to 5000	15	
O=C(O)c1sc(-c2ccccc2)cc1N1C(=O)CN(S(=O)(=O)c2ccc(C(F)(F)F)cc2)CC1C1CCCCC1 (stereo not drawn) [Compound 54, 3-[2-Cyclohexyl-6-oxo-4-(4-trifluoromethyl-benzenesulfonyl)-piperazin-1-yl]-5-phenyl-thiophene-2-carboxylic acid]	100 to 5000	18	
CC(C)(C)N1CCN(c2ccc(S(=O)(=O)N3CC(=O)N(c4cc(-c5ccccc5)sc4C(=O)O)[C@H](C4CCCCC4)C3)cn2)CC1 [Compound 152, 3-{(R)-4-[6-(4-tert-Butyl-piperazin-1-yl)-pyridine-3-sulfonyl]-2-cyclohexyl-6-oxo-piperazin-1-yl}-5-phenyl-thiophene-2-carboxylic acid]		3	≤ 100
CCc1ccc(S(=O)(=O)N2CC(=O)N(c3cc(-c4ccccc4)sc3C(=O)O)C(C3CCCCC3)C2)cc1 (stereo not drawn) [Compound 56, 3-[2-Cyclohexyl-4-(4-ethyl-benzenesulfonyl)-6-oxo-piperazin-1-yl]-5-phenyl-thiophene-2-carboxylic acid]	100 to 5000	7.1	
CC1C(=O)N(c2cc(-c3ccccc3)sc2C(=O)O)C(C2CCCCC2)CN1S(=O)(=O)c1ccc(N2CCOCC2)nc1 (stereo not drawn) [Compound 128, 3-[6-Cyclohexyl-3-methyl-4-(6-morpholin-4-yl-pyridine-3-sulfonyl)-2-oxo-piperazin-1-yl]-5-phenyl-thiophene-2-carboxylic acid]	100 to 5000	9	
CC(C)(C)C#Cc1cc(N2C(=O)[C@@H](CCO)OC[C@H]2C2CCCCC2)c(C(=O)O)s1 [Compound 8, 3-[(2R,5R)-5-Cyclohexyl-2-(2-hydroxy-ethyl)-3-oxo-morpholin-4-yl]-5-(3,3-dimethyl-but-1-ynyl)-thiophene-2-carboxylic acid]		1	≤ 100
Cc1ccc(-c2cc(N3C(=O)CN(S(=O)(=O)c4cn(C)c(C)n4)C[C@H]3C3CCCCC3)c(C(=O)O)s2)cc1 [Compound 298, 3-[(R)-2-Cyclohexyl-4-(1,2-dimethyl-1H-imidazole-4-sulfonyl)-6-oxo-piperazin-1-yl]-5-p-tolyl-thiophene-2-carboxylic acid]		1	≤ 100
CNC(=O)c1ccc(S(=O)(=O)N2CC(=O)N(c3cc(C#CC(C)(C)C)sc3C(=O)O)[C@H](C3CCCCC3)C2)cc1 [Compound 253, 3-[(R)-2-Cyclohexyl-4-(4-methylcarbamoyl-benzenesulfonyl)-6-oxo-piperazin-1-yl]-5-(3,3-dimethyl-but-1-ynyl)-thiophene-2-carboxylic acid]		2	≤ 100
CN(C)c1ccc(-c2ccc(S(=O)(=O)N3CC(=O)N(c4cc(-c5ccccc5)sc4C(=O)O)[C@H](C4CCCCC4)C3)cn2)cc1 [Compound 203, 3-{(R)-2-Cyclohexyl-4-[6-(4-dimethylamino-phenyl)-pyridine-3-sulfonyl]-6-oxo-piperazin-1-yl}-5-phenyl-thiophene-2-carboxylic acid]		1	≤ 100
O=C(O)c1ccc(S(=O)(=O)N2CC(=O)N(c3cc(-c4ccccc4)sc3C(=O)O)C(C3CCCCC3)C2)cc1 (stereo not drawn) [Compound 30, 3-[4-(4-Carboxy-benzenesulfonyl)-2-cyclohexyl-6-oxo-piperazin-1-yl]-5-phenyl-thiophene-2-carboxylic acid]		3	≥ 5000
CNC(=O)c1ccc(S(=O)(=O)N2CC(=O)N(c3cc(-c4ccccc4)sc3C(=O)O)C(C3CCCCC3)C2)cc1 (stereo not drawn) [Compound 98, 3-[2-Cyclohexyl-4-(4-methylcarbamoyl-benzenesulfonyl)-6-oxo-piperazin-1-yl]-5-phenyl-thiophene-2-carboxylic acid]	100 to 5000	3	
CN(C)CCNc1ccc(S(=O)(=O)N2CC(=O)N(c3cc(-c4ccccc4)sc3C(=O)O)C(C3CCCCC3)C2)cn1 (stereo not drawn) [Compound 81, 3-{2-Cyclohexyl-4-[6-(2-dimethylamino-ethylamino)-pyridine-3-sulfonyl]-6-oxo-piperazin-1-yl}-5-phenyl-thiophene-2-carboxylic acid]		9	≤ 100
COc1cc(F)c(S(=O)(=O)N2CC(=O)N(c3cc(C#CC(C)(C)C)sc3C(=O)O)[C@H](C3CCCCC3)C2)cc1OC [Compound 276, 3-[(R)-2-Cyclohexyl-4-(2-fluoro-4,5-dimethoxy-benzenesulfonyl)-6-oxo-piperazin-1-yl]-5-(3,3-dimethyl-but-1-ynyl)-thiophene-2-carboxylic acid]		2	≤ 100
CC1CCN(S(=O)(=O)N2CC(=O)N(c3cc(-c4ccccc4)sc3C(=O)O)C(C3CCCCC3)C2)CC1 (stereo not drawn) [Compound 36, 3-[2-Cyclohexyl-4-(4-methyl-piperidine-1-sulfonyl)-6-oxo-piperazin-1-yl]-5-phenyl-thiophene-2-carboxylic acid]	100 to 5000	58	
O=C(O)c1sc(-c2ccccc2)cc1N1C(=O)CN(Cc2ccc(N3CCCC3)nc2)C[C@H]1C1CCCCC1 [Compound 182, 3-[(R)-2-Cyclohexyl-6-oxo-4-(6-pyrrolidin-1-yl-pyridin-3-ylmethyl)-piperazin-1-yl]-5-phenyl-thiophene-2-carboxylic acid]		2	≤ 100
CC(C)(C)C#Cc1cc(N2C(=O)CN(S(=O)(=O)c3c(F)cccc3F)C[C@H]2C2CCCCC2)c(C(=O)O)s1 [Compound 251, 3-[(R)-2-Cyclohexyl-4-(2,6-difluoro-benzenesulfonyl)-6-oxo-piperazin-1-yl]-5-(3,3-dimethyl-but-1-ynyl)-thiophene-2-carboxylic acid]		4	≤ 100
O=C(O)c1sc(-c2ccccc2)cc1N1C(=O)CN(S(=O)(=O)c2cnc(N3CCCC3)c(Cl)c2)C[C@H]1C1CCCCC1 [Compound 169]		3	≤ 100
COc1ccc(S(=O)(=O)N2CC(=O)N(c3cc(C#CC(C)(C)C)sc3C(=O)O)[C@H](C3CCCCC3)C2)cc1OC [Compound 277, 3-[(R)-2-Cyclohexyl-4-(3,4-dimethoxy-benzenesulfonyl)-6-oxo-piperazin-1-yl]-5-(3,3-dimethyl-but-1-ynyl)-thiophene-2-carboxylic acid]		2	≤ 100
O=C(O)c1sc(-c2ccc(F)cc2)cc1N1C(=O)CN(S(=O)(=O)c2ccc(N3CCC(F)(F)C3)nc2)C[C@H]1C1CCCCC1 [Compound 286, 3-{(R)-2-Cyclohexyl-4-[6-(3,3-difluoro-pyrrolidin-1-yl)-pyridine-3-sulfonyl]-6-oxo-piperazin-1-yl}-5-(4-fluoro-phenyl)-thiophene-2-carboxylic acid]		1	≤ 100
CC(C)N1CCN(c2ccc(S(=O)(=O)N3CC(=O)N(c4cc(-c5ccccc5)sc4C(=O)O)[C@H](C4CCCCC4)C3)cn2)CC1 [Compound 160, 3-{(R)-2-Cyclohexyl-4-[6-(4-isopropyl-piperazin-1-yl)-pyridine-3-sulfonyl]-6-oxo-piperazin-1-yl}-5-phenyl-thiophene-2-carboxylic acid]		1	≤ 100
COc1ccc(S(=O)(=O)N2CC(=O)N(c3cc(-c4ccccc4)sc3C(=O)O)C(C3CCCCC3)C2)cc1 (stereo not drawn) [Compound 103, 3-[2-Cyclohexyl-4-(4-methoxy-benzenesulfonyl)-6-oxo-piperazin-1-yl]-5-phenyl-thiophene-2-carboxylic acid]	100 to 5000	2	
